Laboratory results: BindingDB's records for doi:10.1016/j.ejmech.2019.111601 (National Institute of Pharmaceutical Education and Research …, 2019)
pIC50: −log10 of the molar value.

What was measured:
[1] = target: Prostaglandin G/H synthase 1 (Ovis aries) (UniProt P05979); experiment: Inhibition of ovine COX1 assessed as reduction in PGF2alpha incubated for 2 mins using arachidonic acid as substrate by ELISA
[2] = target: Prostaglandin G/H synthase 2 (Homo sapiens) (UniProt P35354); experiment: Inhibition of recombinant human COX2 assessed as reduction in PGF2alpha incubated for 2 mins using arachidonic acid as substrate by ELISA
Sequence of Prostaglandin G/H synthase 2 (Homo sapiens) (P35354 whole entry, looked up): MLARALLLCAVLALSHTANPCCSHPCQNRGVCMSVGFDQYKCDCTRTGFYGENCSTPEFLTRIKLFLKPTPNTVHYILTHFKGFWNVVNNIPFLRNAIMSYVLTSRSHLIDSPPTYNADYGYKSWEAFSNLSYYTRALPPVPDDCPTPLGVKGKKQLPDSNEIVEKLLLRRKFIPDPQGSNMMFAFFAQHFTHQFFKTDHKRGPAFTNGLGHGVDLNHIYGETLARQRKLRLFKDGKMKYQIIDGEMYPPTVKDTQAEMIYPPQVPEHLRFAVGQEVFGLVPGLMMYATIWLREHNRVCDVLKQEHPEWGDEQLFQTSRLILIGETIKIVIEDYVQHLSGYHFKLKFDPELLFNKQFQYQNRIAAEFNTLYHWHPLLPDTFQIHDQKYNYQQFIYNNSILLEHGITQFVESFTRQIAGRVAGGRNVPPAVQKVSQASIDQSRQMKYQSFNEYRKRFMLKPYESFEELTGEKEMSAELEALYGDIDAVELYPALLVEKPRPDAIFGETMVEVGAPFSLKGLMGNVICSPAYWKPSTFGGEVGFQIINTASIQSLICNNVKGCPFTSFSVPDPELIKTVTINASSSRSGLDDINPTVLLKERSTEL

Structure (SMILES)	pIC50 [1]	pIC50 [2]
CC(=O)N(C1=CC(=O)CCC1)c1ccc(Cl)cc1	4.40	6.44
O=C1C=C(Nc2ccc(Cl)cc2)CCC1	4.42	6.29
CC(C)(C)OC(=O)N(C1=CC(=O)CCC1)c1ccc(Cl)cc1	4.75	6.04
